Assay [1] is described as follows: Fasting glucose in C57BL/6J mice treated with Xestospongin C. The format is in vivo, mouse. The source says:
FIGS. 49A-S. The role of IP3R in forskolin/glucagon-induced G6Pase/PEPCK in cultured hepatocytes and in fasting blood glucose in vivo. FIG. 49 A,B. FSK-Induced G6Pase and PEPCK is Calcium-Dependent. FIG. 49C-D. IP3R Activity is Required for Forskolin- and Glucagon-Induced G6Pase and PEPCK (FAO rat hepatocyte cell line). FIG. 49E-F. IP3R Activity is Required for Forskolin-Induced G6Pase and PEPCK (primary murine hepatocytes). FIG. 49G-H. IP3R1 Anti-Sense Oligonucleotide Suppresses Forskolin-Induced G6Pase and PEPCK (primary murine hepatocytes). FIG. 49I. Forskolin Activates IP3R Activity in FAO Hepatocytes (Inositol/ATP-Induced Calcium Release Assay). FIG. 49J. The PKA Inhibitor H89 Suppresses Forskolin-Induced IP3R Activation. FIG. 49K-L. IP3R Activity is Required for Forskolin-Induced PGC1a. FIG. 49M-N. Calcineurin Inhibitory Peptide Suppresses Forskolin-Induced G6Pase and PEPCK. FIG. 49O. IP3R Activity is Required for Forskolin-Induced Calcineurin Activation. FIG. 49P-Q. IP3R Activity is Required for Forskolin-Induced TORC2 Dephosphorylation and Nuclear Localization. FIG. 49R. TORC2 Transduction Partially Restores Forskolin-Induced G6Pase in IP3R-Inhibited Hepatocytes. FIG. 49S. Xestospongin C Treatment Reduces Fasting Glucose Levels in C57BL/6J Mice.

In assay [2] the test system is CaMKII. Briefly: CaMKII enzyme activity assay in primary mouse hepatocytes. The assay is classed as cell-based. The note with it: HCs, 100 nM glucagon, various times. As to the method:
FIGS. 1A-J. Glucagon and fasting activates hepatic CaMKII. FIG. 1A. CaMKII enzyme activity was assayed in triplicate wells of primary mouse HCs stimulated with 100 nM glucagon (Gluc) or vehicle control (Veh) for the indicated times (*P<0.05 and **P<0.01 vs. Veh; mean±S.E.M.). FIGS. 1B-1J. Extracts of HCs or liver were probed for phospho-CaMKII, total CaMKII, and β-actin by immunoblot assay. FIG. 1B. HCs were incubated with […] glucagon for the indicated times; FIG. 1C. Glucagon was added to HCs that were pre-treated for 1 h with vehicle control (Veh) or 5 μM BAPTA-AM; FIG. 1D. […]
CaMKII activity was assayed using a CaMKII assay kit from Promega according to the manufacturer's instructions. […] Next, [γ-32P]ATP and CaMKII biotinylated peptide substrate were added to the lysate and after incubation for 10 minutes at 30° C., the [32P]-phosphorylated substrate was separated from the residual [32P]ATP using SAM biotin capture membrane and quantitated using a scintillation counter.
CaMKII activity was assayed using a CaMKII assay kit from Promega according to the manufacturer's instructions. […] After incubation for 10 min at 30° C., the [^32P]-phosphorylated substrate was separated from the residual [^32P]ATP using SAM biotin-capture membrane and then quantitated using a scintillation counter. […]

Entries after “also recorded” stand apart in the source; their conditions may differ.

Here are results for two molecules from US9771430B2, “Method of treating a metabolic disorder induced by obesity in a subject in need thereof by administering MK2/3 inhibitors” (THE TRUSTEES OF COLUMBIA UNIVERSITY IN THE CITY OF NEW YORK, priority 2011, dated 2017).

As to `C1CCC[C@H]2CCCN3CC[C@@H](CCCCCC[C@@H]4CCCN5CC[C@@H](CC1)O[C@@H]45)O[C@@H]23` [Xestospongin C], in assay [1], the “Fasting Glucose Levels” value is recorded as “Reduces”. With “glucagon: hormone used to stimulate hepatocytes and mice”, the CaMKII activity entry in assay [2] was “increased steadily as a function of time; also recorded: increases as a function of time”.
